Legend:
Format in all cases: cell-based
[1] = system: Loblolly pine megagametophytes; test: Initiation frequency of embryogenic cultures from Loblolly pine megagametophyte explants
Protocol: Explants were megagametophytes isolated from Loblolly pine summer cones when embryos were at approximately stage 2-4. Seeds were. collected from four individual trees of diverse genotypes. Extracted seeds were soaked in running water for 10 minutes, agitated in 10% liquinox supplemented with 1.1 ml/l of Tween 20 for 10 minutes, and rinsed with water for 30 minutes. Seeds were sterilized in a laminar flow hood by agitating in 20% hydrogen peroxide for 10 minutes and rinsing with sterile deionized water. The seed coat, integuments, and nucellus were removed to isolate the megagametophytes. Culturing was performed in 24-well multi-well culture plates with each well having an approximate volume of 3.0 ml. Two ml of media was poured into each well.
Each replication consisted of eight adjacent wells on a multi-well plate, with one megagametophyte per well, providing three replications per multi-well plate. Twelve replications (for a total of 96 explants) were performed per treatment for each cone collection. The well plates were wrapped in Parafilm®, elastic wrap to minimize evaporation and incubated at 22-24° C. under dark conditions for nine weeks. Initiation frequency was scored for each dish by counting the number of explants which had successfully initiated embryogenic cultures.
The media treatments consisted of: (1) a control media #1043 (see Table 21); (2) media #1218, comprising media #1043 supplemented with 250 mg/l MES buffer; (3) media #1043 supplemented with 0.5 ppm folic acid and 0.05 ppm biotin; and (4) media #1218 supplemented with 0.5 ppm folic acid and 0.05 ppm biotin.
A representative procedure is shown for Loblolly pine. Experimental procedure follow similarly for other conifer but differ slightly in the composition of media used. […] Here, however, each treatment-genotype test consisted of ten replications of ten explants.
The cultures were covered and incubated in the dark at 24-26° C. for nine weeks.
Explants from four Loblolly pine cone collections were prepared and cultured as described in Example 2. The media treatments consisted of control media, #1218, which is media #1043 supplemented. with 250 mg/l MES, and four treatment media, which consist of media #1218 supplemented with 0.33, 1.0, 2.0, and 3.0 ppm paclobutrazol, respectively.
Four cone collections with embryos at stages 2-4 were used. Eighty explants from each cone collection on each media were tested. Seeds were removed from cones and soaked in running water for 10 min. Seeds were then agitated in 10% liquinox containing 1.1 ml/l Tween 20 for 10 min., and then rinsed with running tap water for 30 min. After transferring to a sterile hood, seeds were agitated in 20% H2O2 for 10 min., rinsed with sterile nanopure® H2O five times for 5 to 10 min. intervals, and then placed into a sterile petri dish for dissection. Seeds were dissected by splitting the seed coat, removing the integuments and nucellus. The megagametophyte was placed onto the appropriate medium. Each multi-well test plate contained 2 ml of solid media. Plates were incubated in the dark for 8 weeks and then scored.
The control media, media #1253, is described in detail in Table 16. All test media, #1275, #1421, #1422, and #1423 were comprised of the control media with the addition of a gibberellin inhibitor.

[2] = system: Loblolly pine embryogenic cultures; test: Growth of Loblolly pine embryogenic cultures from single somatic embryos (tissue diameter, area); conditions: for Diameter of tissue (mm) / Approximate tissue area (mm^2): four weeks; for Diameter of tissue (mm): control 4.01; for Approximate tissue area (mm^2): control 12.6
Protocol: Three previously initiated Loblolly pine embryogenic cultures, each representing a different genotype, were grown in liquid media #1133, used as starting material for embryogenic cultures on various treatment media. Using a dissecting scope, individual stage 2 somatic embryos were extracted and placed on treatment media in the center of individual wells on a well plate. Forty embryos were prepared per treatment media, per genotype. Well plates were wrapped in Parafilm® and cultured under standard conditions at room temperature in the dark for four weeks. Embryogenic cultures derived from the single isolated embryos proliferated and spread over the surface of the culture medium. Spreading cultures were roughly circular in shape, radiating from the central embryo. At the end of four weeks, the growth of each culture was measured by measuring colony diameter using a dissecting scope ocular micrometer. Five treatment media were compared to control media #1043 (Table 21). Three media consisted of #1043 supplemented with paclobutrazol at concentrations of 0.33, 1.0 and 3.0 ppm. A B-vitamin treatment contained biotin at 0.05 ppm and folic acid at 0.5 ppm. […] The pH of media containing four different concentrations of MES was compared to that of a non-buffered control media during eight weeks of embryogenic culture growth. Maintenance cultures were established on treatment media using single isolated somatic embryos. Maintenance cultures were prepared and cultured essentially as described in Example 5. The control media was #1043. (See Table 21). The treatment media consisted of #1043 supplemented with 250, 500, 1000 and 1500 mg/l MES. Media pH was adjusted to 5.7 within all treatments prior to autoclaving, pouring and solidification. Immediately after pouring the media, and thereafter at two week intervals, media pH was measured up to the eighth week of culture growth. At each sampling time, four cultures from each media-genotype treatment were destructively sampled to measure the pH of the media directly underlying the growing embryogenic tissue. This experiment measured the effects of ABA, vitamins, culturing in a closed container, and culturing at increased atmospheric pressure on the growth of embryogenic cultures. Maintenance cultures were prepared on well plates using single somatic embryos, essentially as described in Example 5.

[3] = system: slash pine megagametophyte; test: Initiation frequency of embryogenic cultures from slash pine megagametophytes; conditions: 1.0 ppm paclobutrazol in media #1369B (Media 1374); 8 weeks, dark; control 19.3
Protocol: A further representative example in conifer to show the effects of gibberellin inhibitors in a buffered media is slash pine. Three cone collections with embryos at stages 2-4 were chosen. Removed seeds were soaked in running water for […]. and then agitated in 10% liquinox containing 1.1 ml/l Tween 20 for an additional 10 min. Seeds were sterilized in a laminar flood by agitating in 20% H2O2 for 10 min. Seeds were rinsed in sterilized water for 5 cycles of 5 to 10 min. each. The sterile seeds were placed into a sterile petri dish and dissected. The dissection was performed by splitting the seed coat, removing the integuments and nucellus, and placing the megagametophyte on the test medium. Test media #1374 contains the components of media #1369B and 1.0 ppm paclobutrazol. 2 ml of the appropriate media was poured into multi-well plates sufficient for 10 replications for each genotype. The plates were then incubated in the dark for 8 weeks at 24-26° C.

SMILES	Initiation Frequency (%) ([1]; 0.33 ppm in buffered media #1218 (Media 1043 + 250 mg/l MES), control 40.5)	Initiation Frequency (%) ([1]; 0.33 ppm in media #1043, nine weeks, control 39.1)	Initiation Frequency (%) ([1]; 1.0 ppm in buffered media #1218 (Media 1043 + 250 mg/l MES), control 40.5)	Initiation Frequency (%) ([1]; 2.0 ppm in buffered media #1218 (Media 1043 + 250 mg/l MES), control 40.5)	Initiation Frequency (%) ([1]; 3.0 ppm in buffered media #1218 (Media 1043 + 250 mg/l MES), control 40.5)	Initiation Frequency (%) ([1]; base media #1253, 1.0 ppm paclobutrazol, 0.1062 ppm flurprimidol, 1.58 ppm chlormequat-Cl, 0.16 ppm succinic acid-dh, 8 weeks, dark, control 29.5)	Extrusion (%) ([1]; base media #1253, 1.0 ppm paclobutrazol, 0.1062 ppm flurprimidol, 1.58 ppm chlormequat-Cl, 0.16 ppm succinic acid-dh, 8 weeks, dark, control 58.6)	Diameter of tissue (mm) ([2]; 0.33 ppm in media #1043)	Approximate tissue area (mm^2) ([2]; 0.33 ppm in media #1043)	Diameter of tissue (mm) ([2]; 1.0 ppm in media #1043)	Approximate tissue area (mm^2) ([2]; 1.0 ppm in media #1043)	Diameter of tissue (mm) ([2]; 3.0 ppm in media #1043)	Approximate tissue area (mm^2) ([2]; 3.0 ppm in media #1043)	Initiation Frequency (%) [3] [%]	Initiation Frequency (%) ([1]; base media #1043, MES 250 mg/l, vitamins = 0.5 ppm folic acid + 0.05 ppm biotin, nine weeks, dark, control 42.9)	Growth of cultures, as measured by culture diameter, relative to the control ([2]; 250 mg/l MES in media #1043)	Growth of cultures, as measured by culture diameter, relative to the control ([2]; higher concentrations of MES (500, 1000, 1500 mg/l) in media #1043)
CC(C)(C)[C@@H](O)[C@@H](Cc1ccc(Cl)cc1)n1cncn1 (racemic) [paclobutrazol]	46.8	37.3	46.0	46.1	44.7	35.3	58.1	4.13	13.4	5.00	19.6	5.23	21.5	28.5	–	–	–
O=S(=O)(O)CCN1CCOCC1 [MES, 2-(N-morpholino)-ethanesulfonic acid]	–	–	–	–	–	–	–	–	–	–	–	–	–	–	47.7	increased	inhibited
